# Data reported in patent US20220339291A1, “ANTIBODY-DRUG CONJUGATES THAT TARGET DLK1 AND USES THEREOF” (LegoChem Biosciences, Inc., priority 2019, published 2022).
# Positions count from the first letter of the chain named. Like-named read-outs stand apart in the source and are kept apart here. Non-standard residues stand in square brackets, D forms with d. Residues, ends and D or L forms follow the SMILES beside them. Dolaproine = CO[C@@H]([C@@H]1CCCN1)[C@@H](C)C(=O)O; Dil = CC[C@H](C)[C@H](NC)[C@@H](CC(=O)O)OC; NMeV = CN[C@H](C(=O)O)C(C)C
# B1: ADC6 (18A5 conjugated to Compound 6) (other)
# VH: QVQLVQSGGAVVQPGHSLRLSCEASGFKFKDYGMHWVRQAPGKGLEWLAVISHDGRNKNYADSVKGRLTISRDNSKNTLSFQMNSLRAEDTAVYYCVRDWSYAFDIWGQGTLVTVSS
# VL: DIQMTQSPSFLSASVGDRVNITCRASQDISRRLAWYQQKPGKAPKLLIYGAASLQSAVASRFSGSGSGTEFTLTISSLQPEDFANYYCQQIYTTPLTFGGGTKVEIK
# B2: 18A5_AM_1A12: 18A5 mutant anti-DLK1 antibody, heavy chain SEQ ID NO. 127, light chain SEQ ID NO. 128 (antibody, V domains shown)
# VH: B1 VH with A10G, H16G, E23A
# VL: DIQMTQSPSFLSASVGDRVTITCRASHDISSSLAWYQQKSGKAPKLLIYSASNLKSGVPSRFSGSGSGTDFSLTISSLQPEDFATYYCQQSYTTVLTFGGGTKLEIK
# B3: 18A5_LS_1A10: 18A5 mutant anti-DLK1 antibody, heavy chain SEQ ID NO. 101, light chain SEQ ID NO. 126 (antibody, V domains shown)
# VH: B1 VH
# VL: DIQMTQSPSSLSASLGDRVTITCRASQGISSALAWYQQKPGKAPKLLIYAASSLQSGVPSRFSGSGSGTDFTLTINSLQPEDFATYYCQQSYTTPLTFGGGTKVEIK
# B4: 18A5: anti-DLK1 human monoclonal antibody, heavy chain SEQ ID NO. 101, light chain SEQ ID NO. 102 (antibody, V domains shown)
# VH: B1 VH
# VL: B1 VL
# B5: 27F7: anti-DLK1 human monoclonal antibody, heavy chain SEQ ID NO. 109, light chain SEQ ID NO. 110 (antibody, V domains shown)
# VH: QMQLVESGGGLVKPGGSLTLSCDATGFNFGSYYMNWVRQAPGKGLEWLAHISSTGRTIYYADSVKGRFTISRDNAKSSLDLQMNSLRAEDTAVYYCARDQGYPFGMDVWGHGTTVTVSS
# VL: QLVLTQPSSVSGAPGQRVTISCTGSSSNIGAGYDVDWYQQLPGTAPKLLIYGNTNRPSGVPDRFSGSKSGTSASLAITGLQAEDDSDYYCQSYDSSLSAWVFGGGTKLTVL
# Assays:
# [1] = tested on: MIA-PaCa2 (DLK1 negative or normal); assay: In vitro cytotoxicity (cell proliferation inhibition, SRB dye), DLK1-negative cells; type: cell-based, human
# Protocol: (§1) The cancer cell line cell proliferation inhibition activity of the drugs stated in Table 3 below and the ADCs prepared in <Embodiment 3> above was measured. For this purpose, commercially available human pancreatic cancer cell line MIA-PaCa2 (DLK1 negative or normal) and MIA-PaCa-2-DLK1 over-expressing cell line were used. As the drug, MMAF-OMe was used as the ADC, and the ADCs of Table 2 were used. In a 96-well plate, each well was seeded with 4,000 to 5,000 of the respective cancer cell lines for the 72-hour treatment group, 2,000 to 3,000 cells for the 96-hour treatment group, and 800 to 1,000 cells for the 168-hour treatment group. After culturing for 24 hours, they were treated with the drug and ADC at a concentration of 0.0015 to 10.0 nM (serially diluted threefold). 72, 96 and 168 hours later, respectively, the number of live cells was measured using SRB (Sulforhodamine B) dye.
# [2] = tested on: MIA-PaCa-2-DLK1 over-expressing cell line; assay: In vitro cytotoxicity (cell proliferation inhibition, SRB dye), DLK1 over-expressing cells; type: cell-based, human; conditions: MIA-PaCa2 DLK1 positive
# Protocol: as §1
# [3] = target: T1, DLK1 over-expressed on MIA-PaCa-2 cells (UniProt P80370 24-383, limits assumed); assay: cell-based or functional assay
# T1 sequence (looked up): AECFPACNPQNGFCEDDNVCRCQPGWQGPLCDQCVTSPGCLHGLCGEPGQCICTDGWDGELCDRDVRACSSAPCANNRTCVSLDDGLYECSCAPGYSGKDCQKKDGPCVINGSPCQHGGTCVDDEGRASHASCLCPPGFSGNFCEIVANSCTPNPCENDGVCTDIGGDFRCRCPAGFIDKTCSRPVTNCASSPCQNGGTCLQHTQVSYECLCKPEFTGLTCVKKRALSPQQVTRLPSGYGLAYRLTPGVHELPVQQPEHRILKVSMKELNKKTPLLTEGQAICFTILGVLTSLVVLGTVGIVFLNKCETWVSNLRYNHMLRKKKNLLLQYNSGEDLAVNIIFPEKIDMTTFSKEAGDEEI
# [4] = tested on: cells where DLK1 is overexpressed; conditions: confirmed in Korean Patent Application No. 10-2018-0107639; cited from earlier work
molecule,measurement,setting,value
CC[C@H](C)[C@@H]([C@@H](CC(=O)N1CCC[C@H]1[C@H](OC)[C@@H](C)C(=O)N[C@@H](Cc1ccccc1)C(=O)OC)OC)N(C)C(=O)[C@@H](NC(=O)[C@@H](NC)C(C)C)C(C)C [MMAF-OMe] (H-[NMeV]V[Dil][Dolaproine]F-OMe),IC50,"[1]; 72 hr treatment, read-out: IC50 MIA-PaCa2-DLK1 negative 72 hr",0.41 nM
same,IC50,"[1]; 96 h treatment, read-out: IC50 MIA-PaCa2-DLK1 negative 96 h",0.12 nM
same,IC50,"[1]; 168 hr treatment, read-out: IC50 MIA-PaCa2-DLK1 negative 168 hr",0.12 nM
same,IC50,"[2]; 72 hr treatment, read-out: IC50 MIA-PaCa2-DLK1 positive 72 hr",0.3 nM
same,IC50,"[2]; 96 h treatment, read-out: IC50 MIA-PaCa2-DLK1 positive 96 h",0.13 nM
same,IC50,"[2]; 168 hr treatment, read-out: IC50 MIA-PaCa2-DLK1 positive 168 hr",0.06 nM
B1,"IC50 (nM), cell proliferation inhibition (SRB), MIA-PaCa2-DLK1 positive, 168 hr",[3],0.21 nM
B2,binding to cells where DLK1 is overexpressed,[4],capable of binding to cells where DLK1 is overexpressed
B3,binding to cells where DLK1 is overexpressed,[4],capable of binding to cells where DLK1 is overexpressed
B4,binding to cells where DLK1 is overexpressed,[4],capable of binding to cells where DLK1 is overexpressed
B5,binding to cells where DLK1 is overexpressed,[4],capable of binding to cells where DLK1 is overexpressed
